What was measured:
[1] = test system: SIRT6 mutants (E140A/R195A, T184A/S191A/P193A/E283A, E22A and D63A); assay: FDL assay on other SIRT6 mutants; format: biochemical, human; details: three mutants
Description: Fluor-De-Lys (FDL) assays were used for the examination of the deacetylation activities of sirtuins as described previously. For the detection of SIRT6 activity, the 50-μL reaction mixture contained 5 μM SIRT6, 2.5 mM NAD^+ (β-Nicotinamide adenine dinucleotide hydrate, Sigma, N1636), 75 μM RHKK-Ac-AMC (GL Biochem, Shanghai), compounds/DMSO, and assay buffer. The reactions were incubated at 37 °C for 2 h, added 50 μL stop solution (40 mM nicotinamide, 6 mg/mL trypsin) at 25 °C for 30 min. Fluorescence intensity was measured at an excitation wavelength of 360 nm and an emission wavelength of 460 nm. IC50 values were calculated in GraphPad Prism version 8.00.
To explore the interaction mechanism, we performed the molecular docking experiment between SIRT6 (PDB ID: 6QCJ) and 8a. […] 8a mainly formed hydrogen bond with the backbone amino group of D187 and the ribose hydroxyl group of the coenzyme NAD^+, and stabilized the whole system by hydrophobic interactions with key amino acids such as I8, V70, W71, F82 and F86 (Fig. 2g). To verify this binding model, the mutant (V70A and F86A) of SIRT6 was constructed by site mutation. […] Moreover, there were also some other potential binding pockets predicted by molecular docking (data not shown). Based on the prediction, we constructed other two SIRT6 mutants (E140A/R195A and T184A/S191A/P193A/E283A). […]

BXPC-3 cells = assay: Western blot of BXPC-3 cells; format: cell-based
Description: Cells were harvested and lysed in a lysis buffer (solarbio, R0010) supplementing 1 mM PMSF and protease inhibitor (TargetMol, USA). […] The blocked membrane was incubated with primary antibodies:SIRT6 (1:1000, Cell Signaling Technology, Cat#12486S, RRID:AB_2636969), Histone H3 Antibody (1:1000, Cell Signaling Technology, Cat#9715S, RRID:AB_331563), β-Actin (1:2000, Cell Signaling Technology, Cat#4970S, RRID:AB_2223172), Cleaved caspases-3 (1:1000, Cell Signaling Technology, Cat#9661S, RRID:AB_2341188), Cleaved Caspase-9 (Asp315) (1:1000, Cell Signaling Technology, Cat#20750S,RRID:AB_2798848), Cleaved PARP (1:1000, Cell Signaling Technology, Cat#5625S, RRID:AB_10699459), AKT (1:1000, Cell Signaling Technology, Cat#9272S, RRID:AB_329827), Phospho-AKT (Ser473) (D9E) (1:1000, Cell Signaling Technology, Cat#4060S, RRID:AB_2315049), ERK1/2 (1:1000, Cell Signaling Technology, Cat#4695S, RRID:AB_390779), Phospho-p44/42 MAPK (ERK1/2) (Thr202/Tyr204) (1:1000, Cell Signaling Technology, Cat#4370S, RRID:AB_2315112), Cyclin D1 (E3P5S) (1:1000, Cell Signaling Technology, Cat#55506 S, RRID:AB_2827374), Phospho-mTOR(Ser2448) (1:1000,Cell Signaling Technology, Cat#5536S, RRID:AB_10691552), Phospho-p70S6Kinase (Thr421/Ser424) (1:1000, Cell Signaling Technology, Cat#9204 S, RRID:AB_2265913), Phospho-Histone H2A.X (Ser139) (1:1000, Cell Signaling Technology, Cat#9718S, RRID:AB_2118009) at 4 °C overnight. After being washed with TBST, the membranes were incubated with horseradish peroxidase-conjugated secondary antibodies at room temperature for 1 h. Then, the membranes were detected by Tanon 5200 (Tanon, Beijing, China).

[2] = Glucose uptake and insulin secretion in vivo; set-up: species or system C57BL/6 mice; details: mice, 8a 10, 20, 30 mg/kg i.p. + glucose 2 g/kg vs glucose group; short term and long term (2 weeks)
Description: Male C57BL/6 mice (18 ± 2 g, 5 weeks old) were randomly divided into four groups with six mice per group. Acute drug toxicity test was performed. Mice were fasted for 6 h, and basal blood glucose and serum insulin levels were measured by using Accu-Check Performa (Roche, Swiss) glucose meter and Mouse Insulin ELISA kit (Solarbio). Compound 8a (10, 20, 30 mg/kg) was intraperitoneally injected for 10 min, followed by glucose (2 g/kg) intraperitoneally injected. The blood glucose concentration was measured at 30 and 60 min after glucose injection, and the serum insulin content of mice was measured at 60 min. Compound 8a was treated every other day for 2 weeks and tested for chronic drug toxicity. According to the above method, the serum glucose and insulin content of mice were measured.

SIRT6 = SIRT6 (Homo sapiens, UniProt Q8N6T7); assay: Fluor-De-Lys (FDL) SIRT6 deacetylation assay; format: biochemical; set-up: The human full-length SIRT6 gene was inserted into the prokaryotic expression vector (pET-28a (+)); inferred from the pET-28a(+) vector, Ni-NTA purification and Ni-NTA biosensor loading); made in house; host or cells: Escherichia coli BL21 (DE3)
BXPC-3 xenografts = assay: BXPC-3 tumor xenograft in nude mice; format: in vivo, BALB/c nude mice
Description: Female BALB/c nude mice (14 ± 2 g, 4 weeks old) were purchase. About 2 × 10^6 of BXPC-3 cells were inoculated into nude mouse flanks. When the tumor volume reached approximately 100 mm^3, mice were randomly divided into four groups with six mice per group before treatment and then treated with vehicle, 8a (20 mg/kg), gemcitabine (10 mg/kg) and their combination every 2 days. Tumor volumes and body weight were measured every 3 days, and use the formula to calculate the tumor volume: V = (L × W × W)/2 (V, tumor volume; L, length; and W, width). Mice were sacrificed and tumor tissues were removed. Tumor tissues were fixed with paraformaldehyde (4%) and embedded with paraffin.
To further confirm whether 8a can enhance the antitumor effects of gemcitabine in vivo, the BXPC-3 PDAC xenografts were used. The mice with tumors received intraperitoneal injection of compound 8a (20 mg/kg), gemcitabine (10 mg/kg), or their combination once every 2 days for 4 weeks. Tumor volumes and body weight of mice were monitored every 3 days.

[3] = Lineweaver–Burk plot, RHKK-Ac-AMC and NAD+ substrates

Sequence of SIRT6 (Q8N6T7 whole entry): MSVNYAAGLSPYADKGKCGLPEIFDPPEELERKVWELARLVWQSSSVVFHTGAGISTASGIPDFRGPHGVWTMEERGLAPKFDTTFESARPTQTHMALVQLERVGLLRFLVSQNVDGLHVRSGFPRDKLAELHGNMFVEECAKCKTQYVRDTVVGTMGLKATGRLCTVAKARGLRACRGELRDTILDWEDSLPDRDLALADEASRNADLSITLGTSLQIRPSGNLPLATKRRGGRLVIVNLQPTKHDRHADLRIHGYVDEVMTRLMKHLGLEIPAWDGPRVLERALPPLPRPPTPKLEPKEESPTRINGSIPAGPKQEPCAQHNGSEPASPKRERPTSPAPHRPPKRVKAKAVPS

Br.CN(C)C(SCCCCCCn1cnc2c(-c3cc(Br)c(Br)[nH]3)nccc21)=[N+](C)C.[Cl-] [Compound 8a]
effect of mutants on the inhibitory activity of 8a [1]: did not significantly affect | cyclin D1 expression (BXPC-3 cells; BXPC-3, 48 h, dose-dependent): decreased | expression of cleaved-PARP, cleaved-Caspase3, and cleaved-Caspase9 (BXPC-3 cells; BXPC-3, western blot): significantly up-regulated | p-mTOR, p-P70S6K, p-AKT, and p-ERK (BXPC-3 cells; BXPC-3, western blot): significantly down-regulated | acetylation level of H3K9 (BXPC-3 cells; BXPC-3 cells, western blot, dose-dependent): increased | blood glucose and insulin concentration [2]: no significant difference | Km (SIRT6; [3]): did not alter | Vmax (SIRT6; [3]): obviously decreased | inhibition mode (SIRT6; competition and enzymatic kinetic assays): non-competitive inhibitor | tumor inhibition (BXPC-3 xenografts; 8a 20 mg/kg i.p. once every 2 days for 4 weeks, vs control mice): 27% | Ac-H3K9 in tumor tissue (BXPC-3 xenografts; western blotting of tumor tissue samples, 8a 20 mg/kg): elevated
